Test results published in patent US20060052248A1, “Use of a substance with oxytocin activity in order to stimulate plant growth” (priority 2001, published 2006).

Key:
Format in all cases: in vivo
bent (Agrostis tenuis) = experiment: Germination test, bent seeds
Method: (§1) Statistical analysis was performed by means of 2-way ANOVA followed by Bonferoni's test for post hoc comparison. Results are given as mean values. Differences in the number of germinated seeds, coleoptile length, root length (Example 1) and growth of lettuce (Example 2) were assessed by Student's t-test for independent means. Results were considered significant when p<0.05. In each of 10 Petri dishes with a diameter of 10 cm, 100 seeds of bent (Agrostis tenuis) are placed together with two filter papers. To five of the Petri dishes is added 4.5 ml of a 1 μg/ml aqueous solution of oxytocin. To the other five Petri dishes is added the same amount of tap water. All ten Petri dishes are then placed in darkness for germination during fourteen days at a temperature of 18° C.

[1] = tested on: lettuce (Lactuca sativa), sort "Calgary"; experiment: Growth test, lettuce in nutrient solution; details: for Root, dm / Shoot, dm: dry weight/fresh weight; for Root length / Root, dw / Root, fw / Shoot, dw / Shoot, fw / Whole plant, dw / Whole plant, fw: harvest 21 days; for Shoot/root, dw / Shoot/root, fw: ratio
Method: Statistical analysis was performed by means of 2-way ANOVA followed by Bonferoni's test for post hoc comparison. Results are given as mean values. Differences in the number of germinated seeds, coleoptile length, root length (Example 1) and growth of lettuce (Example 2) were assessed by Student's t-test for independent means. Results were considered significant when p<0.05.
The plant used was lettuce (Lactuca sativa), sort “Calgary” and non-disinfected ecological seeds were used. In the same manner as in Example 1, 150 seeds are germinated in oxytocin solution and 150 seeds are germinated in tap water, in both cases in darkness.
After germination for six days, the germs are put into 1 litre test vessels with four germs per vessel. To ten vessels are added oxytocin treated germs and to ten other vessels are added germs treated with tap water, giving totally eighty plants. Each vessel contains 1 litre 300 μM calcium sulphate solution. Other nutrients were added on the first and third day and from day five until harvest, 21 days after transferring germs to vessels. Increasing volumes from a stock nutrient solution (24 mM potassium, 2.5 mM magnesium, 22.3 mM ammonium, 4 mM phosphorus, 46.9 mM nitrate, 1 mM chlorine and trace elements) were supplied to meet the immediate nutrient demand of plants with a relative growth rate of 20% day^−1. Three days after the transport of the germs to the vessels, 1 mg of oxytocin was added to half of the oxytocin treated germs and to half of the germs treated with tap water giving a oxytocin concentration of 1 μg/ml. The growth phase experiment was performed in a climate chamber with 14 hours illumination per day at a temperature of 18° C. at light and at a temperature of 14° C. in darkness.
Accordingly, the eighty plants have been treated as follows:
20 plants (5 vessels each having 4 plants)—treated with tap water during germination and growth (denoted −ox/−ox);
20 plants (5 vessels each having 4 plants)—treated with oxytocin solution during germination and with tap water during growth (denoted +ox/−ox);
20 plants (5 vessels each having 4 plants)—treated with tap water during germination and with oxytocin solution during growth (denoted −ox/+ox);
20 plants (5 vessels each having 4 plants)—treated with oxytocin solution during germination and growth (denoted +ox/+ox).

[2] = tested on: winter wheat (Triticum sativum); experiment: Germination test, winter wheat seeds
Method: as §1, with “winter wheat (Triticum sativum)” for “bent (Agrostis tenuis)”, “are” for “are then”

[3] = 1 μg/ml aqueous oxytocin, 14 days darkness, 18° C.
[4] = 100 seeds per dish, 1 μg/ml aqueous oxytocin, 14 days darkness, 18° C.
[5] = versus tap water, 1 μg/ml oxytocin
[6] = +ox/+ox: oxytocin during germination and growth
[7] = +ox/−ox: oxytocin during germination only
[8] = −ox/+ox: oxytocin 1 μg/ml during growth only

oxytocin
Coleoptile length (bent (Agrostis tenuis); [3]): 39.1 mm | Root length (bent (Agrostis tenuis); [3]): 15.7 mm | Germinated seeds (mean number) (bent (Agrostis tenuis); [4]): 9.8 | Effect on germination and growth of seeds (in words) (bent (Agrostis tenuis); [5]): only the increase in root length was significant | Root length compared with control (in words) ([1]; +ox/+ox: oxytocin available during the whole experiment period): inhibited | Growth compared with control (−ox/−ox) (in words) ([1]; +ox/+ox: oxytocin during both germination and growth): no effects compared with control | Root, dm [1, 6]: 6.44b % | Shoot, dm [1, 6]: 13.34b % | Root length [1, 6]: 21.00b cm | Root, dw [1, 6]: 0.126b g | Root, fw [1, 6]: 1.94ab g | Shoot, dw [1, 6]: 0.596b g | Shoot, fw [1, 6]: 4.466a g | Whole plant, dw [1, 6]: 0.721b g | Whole plant, fw [1, 6]: 6.41ab g | Shoot/root, dw [1, 6]: 4.76a | Shoot/root, fw [1, 6]: 2.30a | Growth compared with control (−ox/−ox) (in words) ([1]; +ox/−ox: oxytocin at germination): significant increase in growth | Root, dm [1, 7]: 7.03a % | Shoot, dm [1, 7]: 14.06ab % | Root length [1, 7]: 24.4a cm | Root, dw [1, 7]: 0.141a g | Root, fw [1, 7]: 2.03a g | Shoot, dw [1, 7]: 0.641ab g | Shoot, fw [1, 7]: 4.559a g | Whole plant, dw [1, 7]: 0.782a g | Whole plant, fw [1, 7]: 6.59a g | Shoot/root, dw [1, 7]: 4.59a | Shoot/root, fw [1, 7]: 2.24a | Root, dm [1, 8]: 6.92ab % | Shoot, dm [1, 8]: 14.55a % | Root length [1, 8]: 23.6a cm | Root, dw [1, 8]: 0.141a g | Root, fw [1, 8]: 2.00a g | Shoot, dw [1, 8]: 0.656a g | Shoot, fw [1, 8]: 4.508a g | Whole plant, dw [1, 8]: 0.797a g | Whole plant, fw [1, 8]: 6.51ab g | Shoot/root, dw [1, 8]: 4.67a | Shoot/root, fw [1, 8]: 2.25a | Growth compared with control (−ox/−ox) (in words) ([1]; −ox/+ox: oxytocin during growth in nutrient solution): significant increase in growth | Coleoptile length [2, 3]: 27.4 mm | Root length [2, 3]: 36.0 mm | Germinated seeds (mean number) [2, 4]: 97.0 | Effect on germination and growth of seeds (in words) [2, 5]: increased the number of germinated seeds and stimulated the growth of seeds
